From patent US20240336562A1, “COMPOUND SERVING AS NLRP3 INHIBITOR” (Hangzhou Innogate Pharma Co., Ltd., priority 2021, published 2024)

Legend:
NLRP3 = NLRP3 (Homo sapiens (Human), UniProt Q96P20); experiment: Inhibitory activity of NLRP3: IL1β induction in THP1 cells (PMA, LPS, nigericin) and IL1β ELISA detection; assay type: cell-based; settings: THP-1, 300 nM compound, LPS 500 ng/mL + nigericin 10 μg/mL
Experimental: Study of the Compound's Inhibitory Activity of NLRP3 Step 1: IL1 β Induction 60 μL/well polylysine was added to 96-well cell culture plate and incubated at 37° C. for 30 min. Discard the solution in the plate and wash the cell culture plate twice with PBS. THP1 (50000 cells/well/95 μL) was planted in cell culture plates, 5 μL of PMA was added to each well (the final concentration was 50 ng/mL), and cultured overnight in a thermostat incubator at 37° C. The supernatant was gently sucked out, the cell culture plate was washed with PBS twice, and 80 μL cell culture medium without FBS, followed by 5 μL/well LPS (final concentration 500 ng/mL) was added to each well. The plate was cultured in a thermostat incubator at 37° C. for 3 hours. […] Then 10 μL/well nigericin (final concentration 10 μg/mL) was added to the cell plate and cultured in a thermostat incubator at 37° C. for 0.5 hours. The cell supernatant was collected into a new cell plate and frozen at -80° C. for future use. Step 2: IL1 β detection IL1β antibody was diluted 60 times with coating buffer, and 100 μL of diluted antibody was added to each well of ELISA plate, and incubated at 4° C. overnight. Discard the liquid in the ELISA plate and wash it 4 times with eluent. Add 300 μL/well reagent diluent and incubate the ELISA plate at room temperature for 1.5 hours. Wash the plate with eluent for four times. […] Wash the plate with eluent for four times. Each well was added with 100 μL detection antibody and incubated at 37° C. for 2 h. Wash the plate with eluent for four times. Add 100 μL of HRP labeled secondary antibody to each well. Incubate at 37° C. for 1 hour. Wash the plate with eluent for four times. Add 100 μL of A+B substrate per well. Incubate at 37° C. for 30 minutes. Add 100 μL STOP solution per well. Gently shake the plate for a few seconds. Read the absorption value at 450 nm on the EnVision multifunction reader and calculate the Inhibitory rate according to the following formula: Inhibition %=([…]). […] The log value of concentration was taken as the X-axis and the percentage inhibitory rate as the Y-axis. […]

[1] = Pharmacokinetic study in rats after intragastrical administration; assay type: in vivo; settings: rat, male SD rats, oral 3 mg/kg, plasma
Experimental: Pharmacokinetic Study in Rats
Instruments: XEVO TQ-S LC/MS instrument produced by Waters. All measurement data is collected and processed by Masslynx V4.1 software, and the data is calculated and processed by Microsoft Excel. Using WinNonLin 8.0 software, the statistical moment method was used to calculate the pharmacokinetic parameters. Mainly include kinetic parameters Tmax, T1/2, Cmax, AUClast etc. Column: ACQUITY UPLC BEH C18 (2.1 mm×50 mm, 1.7 μm); column temperature 40° C.; mobile phase A is water (0.1% formic acid), mobile phase B is acetonitrile, flow rate is 0.350 ml/min, gradient elution is adopted, the elution gradient is 0.50 min: 10% B; 1.50 min: 90% B; 2.50 min: 90% B; 2.51 min: 10% B; 3.50 min: stop. Injection volume: 1 μL.
Animals: 3 male SD rats with a weight range of 200-220 g. After purchase, they will be kept in the laboratory of the Experimental Animal Center for 2 days and then used. They will be fasted for 12 hours predose and 4 hours after dosing. Drinking water is free during the test. After the rats were gavage, blood samples were taken according to the established time point.
Solvent: 0.4% ethanol+0.4% Tween80+99.2% (0.5% methylcellulose M450). Preparation of the solution for intragastrical administration: accurately weigh the compound, add it to the solvent, and use ultrasound at room temperature for 5 minutes to completely dissolve the drug, and prepare a 0.3 mg/mL medicinal solution.
Pharmaceutical samples: Generally, multiple samples with similar structures (with a molecular weight difference of more than 2 units) are taken, accurately weighed, and administered together (cassette PK). In this way, multiple compounds can be screened at the same time and their oral absorption rates can be compared. A single administration was also used to study the pharmacokinetics of the drug sample in rats.
After intragastrical administration, blood was taken from the orbit at 0.25, 0.5, 1, 2, 4, 8, 10 and 24 hours. Then take 50 μL of the plasma sample, add 200 μL of acetonitrile (including internal standard control verapamil 2 ng/mL), vortex for 3 min and centrifuge at 20000 ref, 4° C. for 10 min. The supernatant plasma was used for LC-MS/MS analysis.
Accurately weigh the compounds to prepare different concentrations, perform quantitative analysis on mass spectrometry to establish a standard curve, and then test the concentration of the above-mentioned compound in the plasma to obtain the compound concentration at different time points. All measurement data are collected and processed by relevant software, and the statistical moment method is used to calculate the pharmacokinetic parameters (mainly including kinetic parameters Tmax, T1/2, Cmax, AUClast etc).

Chain of NLRP3 (Q96P20 whole entry): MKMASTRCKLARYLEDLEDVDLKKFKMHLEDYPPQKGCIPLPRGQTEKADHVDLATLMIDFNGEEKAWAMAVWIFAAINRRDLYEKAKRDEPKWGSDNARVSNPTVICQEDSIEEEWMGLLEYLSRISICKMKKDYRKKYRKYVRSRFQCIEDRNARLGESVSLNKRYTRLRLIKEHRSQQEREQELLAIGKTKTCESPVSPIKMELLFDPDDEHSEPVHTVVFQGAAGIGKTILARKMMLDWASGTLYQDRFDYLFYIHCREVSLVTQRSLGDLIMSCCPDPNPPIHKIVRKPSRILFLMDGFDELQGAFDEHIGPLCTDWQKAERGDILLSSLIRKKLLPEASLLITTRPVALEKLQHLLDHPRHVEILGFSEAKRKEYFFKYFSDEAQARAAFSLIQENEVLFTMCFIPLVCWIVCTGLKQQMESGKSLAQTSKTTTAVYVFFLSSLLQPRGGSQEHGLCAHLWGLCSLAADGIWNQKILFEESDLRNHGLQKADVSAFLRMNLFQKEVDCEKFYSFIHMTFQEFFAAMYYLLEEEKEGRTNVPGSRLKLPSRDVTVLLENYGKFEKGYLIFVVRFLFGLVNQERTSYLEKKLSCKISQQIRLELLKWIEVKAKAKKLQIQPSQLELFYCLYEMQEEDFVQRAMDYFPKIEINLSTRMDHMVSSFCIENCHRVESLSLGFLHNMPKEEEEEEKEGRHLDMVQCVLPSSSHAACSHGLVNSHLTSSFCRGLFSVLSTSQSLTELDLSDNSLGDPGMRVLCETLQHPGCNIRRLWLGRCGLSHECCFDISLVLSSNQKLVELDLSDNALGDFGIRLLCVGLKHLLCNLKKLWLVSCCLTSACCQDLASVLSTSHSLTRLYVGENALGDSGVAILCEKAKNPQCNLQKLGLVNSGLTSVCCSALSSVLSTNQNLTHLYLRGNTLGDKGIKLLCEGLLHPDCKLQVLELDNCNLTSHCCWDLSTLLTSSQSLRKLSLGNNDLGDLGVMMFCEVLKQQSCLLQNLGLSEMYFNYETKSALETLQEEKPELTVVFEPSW

| inhibition at 0.3 µM (NLRP3) | Structure (SMILES) | Cmax [1] | Tmax [1] | half-life [1] | AUC(0-t) ([1]; read-out: AUC(0-24)) |
| --- | --- | --- | --- | --- | --- |
| > 50% | Cc1cc2c(c(NC(=O)NS(C)(=O)=O)c1-c1ccnc(OCC3=CCN(C)CC3)c1)CCC2 [Compound 1] | – | – | – | – |
| – | COc1cc(-c2c(C)cc3c(c2NC(=O)NS(=O)(=O)c2ccn(C4CC(=C(F)F)C4)n2)CCC3)ccn1 (stereo not shown) [Compound 22] | 1.53 µg/mL | 1 h | 5.6 h | 6.71 µg·h/mL |
| > 50% | Cc1cc2c(c(NC(=O)NS(=O)(=O)C3CC3)c1-c1ccnc(OCC3=CCCN(C)C3)c1)CCC2 [Compound 6] | – | – | – | – |
| > 50% | Cc1cc2c(c(NC(=O)NS(=O)(=O)N(C)C)c1-c1ccnc(OCC3=CCCN(C)C3)c1)CCC2 [Compound 7] | – | – | – | – |
